Experimental data published in ChEMBL document CHEMBL1201862, “PubChem BioAssay data set” (2004).
Activity calls are given as the source filed them.

Key:
Bcl-2-related protein A1 [1] = biological target: T1, Bcl-2-related protein A1 (Mus musculus, UniProt Q07440); assay: Bfl-1 binding inhibitors, SAR follow-up, biochemical, fluorescence polarization (AID 1070)
T1 sequence (Q07440 whole entry): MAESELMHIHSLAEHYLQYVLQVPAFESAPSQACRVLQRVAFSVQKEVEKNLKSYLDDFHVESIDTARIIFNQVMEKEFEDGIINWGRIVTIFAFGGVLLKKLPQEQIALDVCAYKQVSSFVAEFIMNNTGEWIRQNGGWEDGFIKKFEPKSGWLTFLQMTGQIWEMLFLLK

Bcl-2-related protein A1 [2] = biological target: T1, Bcl-2-related protein A1; assay: small-molecule antagonists of Bfl-1/BH3 interaction – biochemical, TR-FRET, mouse Bfl-1, confirmation (AID 621);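 further: TR-FRET binding of GST-Bfl-1 to FITC-labelled Bid peptide via terbium antibody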
[3] = biological target: Glyceraldehyde-3-phosphate dehydrogenase (Homo sapiens, UniProt P04406)
Procathepsin L = Procathepsin L (Homo sapiens, UniProt P07711); assay: CTSL1 protease inhibition – biochemical, QFRET, 1536-well, counter-screen for M1/M17 aminopeptidase inhibitor project, dose response (AID 2214)
Aminopeptidase N = biological target: T2, Aminopeptidase N (Plasmodium falciparum FcB1/Columbia, UniProt O96935); assay: malaria alanyl aminopeptidase activity blockers – biochemical, fluorogenic H-Leu-NHMec substrate, 1536-well (AID 1445); design: species or system Plasmodium falciparum 3D7, 3D7
T2 sequence (O96935 whole entry): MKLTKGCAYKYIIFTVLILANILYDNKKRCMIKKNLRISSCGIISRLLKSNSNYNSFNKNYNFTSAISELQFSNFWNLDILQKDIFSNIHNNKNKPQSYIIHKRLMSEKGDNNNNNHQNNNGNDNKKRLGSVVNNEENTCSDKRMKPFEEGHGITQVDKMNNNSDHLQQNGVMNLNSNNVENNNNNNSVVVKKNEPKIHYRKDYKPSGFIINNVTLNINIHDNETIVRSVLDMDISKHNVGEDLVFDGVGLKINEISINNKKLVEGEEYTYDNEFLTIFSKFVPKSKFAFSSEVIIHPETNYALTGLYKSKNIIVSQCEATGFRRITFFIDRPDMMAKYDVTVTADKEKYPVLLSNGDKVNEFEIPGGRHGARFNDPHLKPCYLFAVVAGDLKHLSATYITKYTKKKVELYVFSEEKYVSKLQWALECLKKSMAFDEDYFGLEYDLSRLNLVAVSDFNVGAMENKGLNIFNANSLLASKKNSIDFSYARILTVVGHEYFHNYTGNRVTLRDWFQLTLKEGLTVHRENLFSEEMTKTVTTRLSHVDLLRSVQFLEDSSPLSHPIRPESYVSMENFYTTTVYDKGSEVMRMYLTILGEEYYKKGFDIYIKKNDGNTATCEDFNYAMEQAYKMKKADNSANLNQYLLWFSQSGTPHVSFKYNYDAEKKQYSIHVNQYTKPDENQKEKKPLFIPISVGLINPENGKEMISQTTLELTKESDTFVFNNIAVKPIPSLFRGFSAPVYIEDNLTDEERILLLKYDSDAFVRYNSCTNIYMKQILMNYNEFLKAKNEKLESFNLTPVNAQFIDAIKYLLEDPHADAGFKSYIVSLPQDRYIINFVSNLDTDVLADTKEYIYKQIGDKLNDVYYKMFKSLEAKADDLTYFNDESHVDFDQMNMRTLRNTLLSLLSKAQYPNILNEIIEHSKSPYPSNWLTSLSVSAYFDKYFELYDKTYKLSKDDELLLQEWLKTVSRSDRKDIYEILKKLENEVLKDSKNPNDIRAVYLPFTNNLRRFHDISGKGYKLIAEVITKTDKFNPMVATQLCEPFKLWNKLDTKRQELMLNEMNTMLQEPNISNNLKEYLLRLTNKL

Aspartyl aminopeptidase = Aspartyl aminopeptidase (Plasmodium falciparum 3D7, UniProt Q8I2J3); assay: Counterscreen for inhibitors of M1 and M17 aminopeptidases: QFRET-based biochemical high throughput dose response assay for inhibitors of the Plasmodium falciparum M18 Aspartyl Aminopeptidase (PFM18AAP). [Related PubChem assays: 1619 (Screening assay (M17LAP inhibitors).), 1445 (Screening assay (M1AAP inhibitors).)]
[4] = Luminescence Cell-Based Dose Response to Identify Activators of 5'UTR Stem-Loop Driven Prion Protein mRNA Translation in H4-C Neuroglioblastoma Cells. [Related pubchem assays: 1829 (Project Summary), 1814 (Primary HTS)]; type: functional
[5] = Luminescence Cell-Based Dose Response to Identify Activators of Luciferase Translation or Activity in H4-C Neuroglioblastoma Cells. [Related pubchem assays: 1829 (Project Summary), 1814 (Primary HTS)]; type: functional
[6] = Luminescence Cell-Based Dose Response HTS to Identify Activators of Luciferase Translation or Activity in H4 […] Cells. [Related pubchem assays: 1829 (Project Summary), 1814 (Primary HTS)]; type: functional
H4 = assay: Luminescence Cell-Based Dose Response HTS to Identify Activators of 5'UTR Stem-Loop Driven Prion Protein mRNA Translation in H4 Neuroglioblastoma Cells. [Related pubchem assays: 1829 (Project Summary), 1814 (Primary HTS)]; type: functional; details: Homo sapiens
[7] = Luminescence Cell-Based Dose Confirmation to Identify Activators of 5'UTR Stem-Loop Driven Alpha-Synuclein mRNA Translation in H4 Neuroglioblastoma Cells. [Related pubchem assays: 1829 (Project Summary), 1814 (Primary HTS)]; type: functional
HeLa = assay: ATP-based viability loss in HeLa cells – cell-based, CellTiter-Glo luminescence, cherry-pick samples, cytotoxicity control for MITF activator project, dose response (AID 540259); type: functional; details: Homo sapiens
[8] = Luminescence Cell-Based Dose Confirmation HTS to Identify Activators of 5'UTR Stem-Loop Driven Alpha-Synuclein mRNA Translation in H4 Neuroglioblastoma Cells. [Related pubchem assays: 1829 (Project Summary), 1814 (Primary HTS)]; type: functional
[9] = biological target: T3, COUP transcription factor 2 (Homo sapiens, UniProt P24468); assay: Luminescence-based cell-based high throughput dose response assay to identify inhibitors of COUP-TFII (NR2F2).; type: functional;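 further: HEK293 cells transiently cotransfected with COUP-TFII expression vector and reporter; luciferase reporter luminescence driven by COUP-TFII from the pX2-168 reporter plasmid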
T3 sequence (P24468 whole entry): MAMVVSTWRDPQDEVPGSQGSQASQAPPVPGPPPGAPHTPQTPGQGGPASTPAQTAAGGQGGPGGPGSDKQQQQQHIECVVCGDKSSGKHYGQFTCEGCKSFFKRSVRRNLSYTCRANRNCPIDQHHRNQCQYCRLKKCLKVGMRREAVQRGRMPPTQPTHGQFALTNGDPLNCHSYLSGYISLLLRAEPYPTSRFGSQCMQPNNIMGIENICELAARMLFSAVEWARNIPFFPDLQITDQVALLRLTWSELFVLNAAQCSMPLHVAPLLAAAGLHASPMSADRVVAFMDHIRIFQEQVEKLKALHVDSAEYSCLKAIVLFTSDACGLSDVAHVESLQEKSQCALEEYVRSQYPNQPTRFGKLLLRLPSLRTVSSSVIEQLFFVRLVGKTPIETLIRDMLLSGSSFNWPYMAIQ

[10] = NIH3T3 cell viability loss – ATP luminescence, mouse fibroblasts, counter-screen, dose response (AID 2010); type: functional, cell-based;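 further: cells exposed to compound for about 90 hours before reading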
[11] = blockers of HIV-1 ZM109 envelope-driven cell-cell fusion – HeLa effector, CEM target cells, luciferase, cherry-pick, dose response (AID 652058); type: functional, cell-based;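 further: luciferase signal from HIV-1 Env mediated cell-cell fusion of effector and target cells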
INS1 = assay: INS-1E survival protection against cytokine death – cell-based, luminescence, retest, dose response (AID 449756); type: functional; details: Rattus norvegicus;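 further: cell death triggered by IL-1 beta plus TNF-alpha plus IFN-gamma mixture; protective hits raise ATP signal compared with cytokine alone wells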
[12] = viability loss in CEM21 cells – cell-based, CellTiter-Glo luminescence, cherry-picked, cytotoxicity control for viral fusion inhibitor project, dose response (AID 652042); type: functional;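 further: potency for signal decrease meaning cytotoxicity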
[13] = Trypanosoma cruzi growth suppression in host cells – NIH3T3 host cells, beta-gal luminescence, confirmation (AID 2044); type: functional, cell-based;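 further: intracellular parasites grown in NIH/3T3 mouse fibroblasts as host cells; luminescent beta-galactosidase reporter signal from transgenic T. cruzi replicating inside host cells; inhibitors lower the luminescence signal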
Galanin receptor type 3 = Galanin receptor type 3 (Homo sapiens, UniProt O60755); assay: Fluorescence-based cell-based primary high throughput dose response assay to identify antagonists of the Galanin Receptor 3 (GalR3).; type: functional
[14] = HIV-1 AD8 envelope cell-cell fusion blockers – cherry-pick, dose response (AID 652062); type: functional, cell-based;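 further: luciferase signal from cell-cell fusion driven by HIV-1 clade B AD8 Env; potency is for inhibitors of fusion seen as a drop in luminescence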
[15] = luciferase reporter signal suppression in cells – H4 neuroglioma cells, luminescence, dose response (AID 1990); type: functional, cell-based
cells [16] = type: functional, cell-based; details: HEK-CNG
[17] = blockers of HIV-1 envelope-mediated cell-cell fusion – cherry-pick, dose response (AID 652057); type: functional, cell-based
[18] = off-target signal loss in HeLa-CEM21 co-culture – HeLa F-luc CTL cells, cherry-picked, counter-screen for HIV-1 Env fusion inhibitor project, dose response (AID 652040); type: functional, cell-based;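 further: potency for signal decrease marking cytotoxic or nonspecific inhibition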
[19] = Luminescence Cell-Based Dose Response HTS to Identify Inhibitors of 5'UTR Stem-Loop Driven Prion Protein mRNA Translation in H4 Neuroglioblastoma Cells. [Related pubchem assays: 1827 (Project Summary), 1813 (Primary HTS)]; type: functional
[20] = alpha-synuclein stem-loop luciferase translation blockers – H4 neuroglioma cells, luminescence, confirmation (AID 1988); type: functional, cell-based
cells [21] = assay: cells
[22] = HEK-293T viability loss, compound-treated – cell-based, uHTS hits, cytotoxicity control for B/T-cell NF-kB inhibitor project, dose response (AID 489019); type: functional;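 further: IC50 reflects cytotoxicity as loss of cell viability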
[23] = biological target: T4, Neuropeptide Y receptor type 2 (Homo sapiens, UniProt P49146); assay: IC50 for human NPY-Y2 blockade – cell-based, counter-screen for NPY-Y1 antagonist project, dose response (AID 1278); type: functional
T4 sequence (P49146 whole entry): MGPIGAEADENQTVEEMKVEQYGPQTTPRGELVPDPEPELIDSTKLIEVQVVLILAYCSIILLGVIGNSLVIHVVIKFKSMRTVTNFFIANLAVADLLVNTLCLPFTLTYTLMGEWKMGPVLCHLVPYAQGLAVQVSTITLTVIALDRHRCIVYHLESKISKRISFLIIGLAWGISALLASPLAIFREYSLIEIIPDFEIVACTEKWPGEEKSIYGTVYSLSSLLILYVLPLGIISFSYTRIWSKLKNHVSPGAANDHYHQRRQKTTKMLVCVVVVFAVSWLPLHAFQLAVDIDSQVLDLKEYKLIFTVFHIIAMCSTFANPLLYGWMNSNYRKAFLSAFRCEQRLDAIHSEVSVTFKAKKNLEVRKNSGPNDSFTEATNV

Jurkat = assay: blockers of NF-kB activation in T cells – Jurkat, luciferase reporter, luminescence, B- and T-cell, dose response (AID 489004); type: functional, cell-based; details: Homo sapiens;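 further: NF-kB luciferase reporter Jurkat cells stimulated with PMA plus ionomycin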
[24] = biological target: T5, Neuropeptide Y receptor type 1 (Homo sapiens, UniProt P25929); assay: IC50 of human NPY-Y1 blockers – cell-based, dose response (AID 1277); type: functional
T5 sequence (P25929 whole entry): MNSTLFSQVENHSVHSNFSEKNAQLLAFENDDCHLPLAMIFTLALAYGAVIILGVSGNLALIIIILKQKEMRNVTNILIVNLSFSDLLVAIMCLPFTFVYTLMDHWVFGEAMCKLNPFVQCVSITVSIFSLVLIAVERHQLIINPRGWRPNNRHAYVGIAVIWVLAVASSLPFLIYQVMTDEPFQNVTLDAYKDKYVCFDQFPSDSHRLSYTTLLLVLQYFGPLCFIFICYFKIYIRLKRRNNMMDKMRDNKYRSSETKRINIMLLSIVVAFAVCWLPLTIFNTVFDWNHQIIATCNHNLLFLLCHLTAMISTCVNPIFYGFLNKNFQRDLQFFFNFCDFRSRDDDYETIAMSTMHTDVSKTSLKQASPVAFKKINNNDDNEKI

Sequence of Galanin receptor type 3 (O60755 whole entry, the tested form may be a part): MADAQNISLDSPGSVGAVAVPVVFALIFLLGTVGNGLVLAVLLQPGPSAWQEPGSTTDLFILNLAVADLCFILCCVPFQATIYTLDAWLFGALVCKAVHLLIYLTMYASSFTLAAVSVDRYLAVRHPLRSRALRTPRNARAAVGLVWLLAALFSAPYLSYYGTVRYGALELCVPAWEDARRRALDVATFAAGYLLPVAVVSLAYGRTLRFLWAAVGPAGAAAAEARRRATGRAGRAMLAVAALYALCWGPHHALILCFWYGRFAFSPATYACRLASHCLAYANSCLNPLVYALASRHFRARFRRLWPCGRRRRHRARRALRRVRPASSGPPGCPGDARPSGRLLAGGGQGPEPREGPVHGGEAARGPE
Sequence of Aspartyl aminopeptidase (Q8I2J3 whole entry): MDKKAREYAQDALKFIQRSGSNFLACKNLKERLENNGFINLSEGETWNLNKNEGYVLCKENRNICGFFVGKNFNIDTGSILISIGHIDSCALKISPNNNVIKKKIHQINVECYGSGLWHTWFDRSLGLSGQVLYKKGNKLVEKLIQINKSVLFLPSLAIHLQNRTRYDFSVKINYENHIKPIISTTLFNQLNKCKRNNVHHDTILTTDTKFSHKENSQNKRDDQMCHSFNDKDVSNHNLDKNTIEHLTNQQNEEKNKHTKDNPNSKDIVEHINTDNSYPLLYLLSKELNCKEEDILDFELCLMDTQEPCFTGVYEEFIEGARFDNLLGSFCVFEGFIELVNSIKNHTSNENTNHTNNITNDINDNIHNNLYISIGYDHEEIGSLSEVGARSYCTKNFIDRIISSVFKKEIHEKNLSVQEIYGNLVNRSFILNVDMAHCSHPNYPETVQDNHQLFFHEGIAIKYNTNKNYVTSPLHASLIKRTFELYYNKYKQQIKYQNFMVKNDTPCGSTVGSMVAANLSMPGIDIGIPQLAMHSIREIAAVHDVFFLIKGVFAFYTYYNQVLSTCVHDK
Sequence of Procathepsin L (P07711 whole entry): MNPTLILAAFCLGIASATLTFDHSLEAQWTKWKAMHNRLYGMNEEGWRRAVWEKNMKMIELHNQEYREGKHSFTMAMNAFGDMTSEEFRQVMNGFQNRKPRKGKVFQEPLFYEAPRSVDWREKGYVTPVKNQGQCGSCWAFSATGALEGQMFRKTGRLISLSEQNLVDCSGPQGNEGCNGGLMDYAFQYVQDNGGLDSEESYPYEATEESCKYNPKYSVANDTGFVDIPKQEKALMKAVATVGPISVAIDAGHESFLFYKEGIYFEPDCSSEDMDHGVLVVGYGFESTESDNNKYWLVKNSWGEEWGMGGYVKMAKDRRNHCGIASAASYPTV
Sequence of Glyceraldehyde-3-phosphate dehydrogenase (P04406 whole entry): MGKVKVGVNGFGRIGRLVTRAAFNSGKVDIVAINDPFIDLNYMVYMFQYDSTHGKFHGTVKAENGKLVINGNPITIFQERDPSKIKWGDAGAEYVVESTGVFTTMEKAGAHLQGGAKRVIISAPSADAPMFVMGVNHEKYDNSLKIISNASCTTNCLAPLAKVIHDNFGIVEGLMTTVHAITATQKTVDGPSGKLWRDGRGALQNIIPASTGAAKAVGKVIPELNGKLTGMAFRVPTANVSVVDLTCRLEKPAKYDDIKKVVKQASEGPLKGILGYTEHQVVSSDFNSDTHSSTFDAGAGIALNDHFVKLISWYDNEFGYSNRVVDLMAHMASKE

Cc1ccc(Cl)c(N2C(=O)C(Cl)=C(Cl)C2=O)c1Cl
> 100 µM (not active): IC50 (Bcl-2-related protein A1 [1]) | IC50 [3]
active: IC50 (Bcl-2-related protein A1 [2]) 20.1 µM

COc1ccc(C2CC(c3c(-c4ccccc4)c4cc(Cl)ccc4[nH]c3=O)=NN2C(=O)CCC(=O)O)cc1 (configuration not stated)
active: IC50 (Aminopeptidase N) 4.93 µM
> 73.5 µM (not active): IC50 (Aspartyl aminopeptidase)
> 59.6 µM (not active): IC50 (Procathepsin L)

COc1cccc(/C(C)=N/N=C(\C)c2cccc(OC)c2)c1
active: EC50 [4] 1.47 µM | EC50 [5] 0.36 µM | EC50 [6] 0.488 µM | EC50 (H4) 38.7 µM | EC50 [7] 0.419 µM | AC50 (HeLa) 64.5 µM | EC50 [8] < 0.1 µM

CCCCCCn1c2c(c(=N)c3c1CCC3)CCC2
> 60 µM (not active): EC50 [10]
14.6 µM (not active): IC50 [23]
active: IC50 [9] 3.52 µM | AC50 [11] 0.949 µM | AC50 (INS1) 2.04 µM | AC50 [12] 3.33 µM | EC50 [13] < 0.1 µM | IC50 (Galanin receptor type 3) 8.41 µM | AC50 [14] 3.19 µM | EC50 [15] 8.02 µM | AC50 [17] 6.91 µM | EC50 [19] 14.3 µM | EC50 [20] 6.52 µM | EC50 (cells [21]) 0.007 µM | IC50 (Jurkat) 7.15 µM | IC50 [24] 8.75 µM
inactive: EC50 (cells [16]) > 29.9 µM | AC50 [18] > 70 µM | IC50 [22] > 80 µM
